Measurements from US8334315B2, “Substituted aromatic carboxamide and urea derivatives as vanilloid receptor ligands” (Gruenenthal GmbH, priority 2009, dated 2012).

How the values were obtained:
[1] = biological target: T1, hVR1 (Homo sapiens, UniProt Q8NER1); experiment: Functional test on hVR1 after pH stimulus; type: cell-based, human being; set-up: key to IC50 (human being) hVR1, pH: agonist / partial agonist / no effect: AG=agonist; pAG=partial agonist; NE=no effect; settings: for inhibition at 10 µM: read-out: IC50 (human being) hVR1, pH: inhibition (as a percentage)
T1 construct: expressed in transfected cells; host or cells: CHO K1 cells (ECACC), stably transfected
T1 sequence (Q8NER1 whole entry): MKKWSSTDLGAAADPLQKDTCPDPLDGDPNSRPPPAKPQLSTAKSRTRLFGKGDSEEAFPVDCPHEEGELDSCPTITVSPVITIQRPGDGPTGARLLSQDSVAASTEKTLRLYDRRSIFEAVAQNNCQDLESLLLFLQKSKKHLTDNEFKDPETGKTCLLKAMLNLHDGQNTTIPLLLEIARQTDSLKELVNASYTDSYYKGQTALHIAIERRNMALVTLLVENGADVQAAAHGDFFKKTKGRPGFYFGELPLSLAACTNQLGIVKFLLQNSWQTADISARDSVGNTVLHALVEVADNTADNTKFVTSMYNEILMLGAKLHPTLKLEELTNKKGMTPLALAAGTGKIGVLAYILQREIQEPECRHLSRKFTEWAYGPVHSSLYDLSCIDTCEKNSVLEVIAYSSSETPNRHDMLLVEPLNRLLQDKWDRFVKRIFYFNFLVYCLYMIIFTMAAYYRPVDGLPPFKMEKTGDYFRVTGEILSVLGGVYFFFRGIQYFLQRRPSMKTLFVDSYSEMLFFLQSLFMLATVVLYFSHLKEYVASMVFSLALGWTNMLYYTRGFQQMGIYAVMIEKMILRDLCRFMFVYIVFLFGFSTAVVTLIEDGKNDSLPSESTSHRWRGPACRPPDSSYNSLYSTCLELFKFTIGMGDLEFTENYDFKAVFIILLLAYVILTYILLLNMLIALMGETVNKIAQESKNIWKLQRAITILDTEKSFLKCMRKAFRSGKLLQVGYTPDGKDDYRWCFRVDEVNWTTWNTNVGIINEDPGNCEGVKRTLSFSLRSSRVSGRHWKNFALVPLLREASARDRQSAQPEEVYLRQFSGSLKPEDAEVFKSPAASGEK

[2] = biological target: T1, hVR1; experiment: Functional test on human VR1, NADA (N-arachidonoyl dopamine) stimulus; type: cell-based, human being; set-up: key to Ki (human being) NADA: agonist / partial agonist / no effect: AG=agonist; pAG=partial agonist; NE=no effect; settings: for Ki: includes values given in brackets after pAG, read-out: Ki (human being) [nM] NADA
Text: II. Functional Tests Carried Out on the Vanilloid Receptor (VR1)
The agonistic or antagonistic effect of the substances to be tested on the vanilloid receptor 1 (VR1) can also be determined using the following assay. In this assay, the influx of Ca^2+ through the channel is quantified with the aid of a Ca^2+-sensitive dye (type Fluo-4, Molecular Probes Europe BV, Leiden, the Netherlands) in a fluorescent imaging plate reader (FLIPR, Molecular Devices, Sunnyvale, USA).
Chinese hamster ovary cells (CHO K1 cells, European Collection of Cell Cultures (ECACC) United Kingdom) are stably transfected with the VR1 gene. For functional testing, these cells are plated out on poly-D-lysine-coated black 96-well plates having a clear base (BD Biosciences, Heidelberg, Germany) at a density of 25,000 cells/well. The cells are incubated overnight at 37° C. and 5% CO2 in a culture medium (Ham's F12 nutrient mixture, 10% by volume of FCS (foetal calf serum), 18 μg/ml of L-proline). The next day the cells are incubated with Fluo-4 (Fluo-4 2 μM, 0.01% by volume of Pluronic F127, Molecular Probes in HBSS (Hank's buffered saline solution), Gibco Invitrogen GmbH, Karlsruhe, Germany) for 30 minutes at 37° C. Subsequently, the plates are washed three times with HBSS buffer and after further incubation for 15 minutes at RT used for Ca^2+ measurement in a FLIPR assay. The Ca^2+-dependent fluorescence is measured before and after the addition of the substances to be tested (λex wavelength=488 nm, λem=540 nm). Quantification is carried out by measuring the highest fluorescence intensity (FC, fluorescence counts) over time.
The FLIPR protocol consists of 2 substance additions. First the compounds to be tested (10 μM) are pipetted onto the cells and the Ca^2+ influx is compared with the control (capsaicin 10 μM) (% activation based on the Ca^2+ signal after the addition of 10 μM of capsaicin). […]
Desensitising agonists and antagonists led to suppression of the Ca^2+ influx. The % inhibition is calculated compared to the maximum achievable inhibition with 10 μM of capsaicin.
Starting from the percentage displacement caused by different concentrations of the compounds to be tested of general formula I, IC50 inhibitory concentrations which cause a 50-per cent displacement of capsaicin were calculated. Ki values for the test substances were obtained by conversion by means of the Cheng-Prusoff equation (Cheng, Prusoff; Biochem. Pharmacol. 22, 3099-3108, 1973).
NADA=N-arachidonoyl dopamine

[3] = tested on: NMRI mice; experiment: Neuropathic pain in mice, Bennett model (chronic constriction injury, cold allodynia) (CClm); type: in vivo
Protocol: VI. Neuropathic Pain in Mice
Efficacy in […] pain was tested using the Bennett model (chronic constriction injury; Bennett and Xie, 1988, Pain 33: 87-107).
Three loose ligatures are tied around the right ischiadic nerve of Ketavet/Rompun-anaesthetised NMRI mice weighing 16-18 g. The animals develop hypersensitivity of the innervated paw caused by the damaged nerve, which hypersensitivity is quantified, following a recovery phase of one week, over a period of approximately three weeks by means of a cold metal plate (temperature 4° C.) (cold allodynia). The animals are observed on this plate over a period of 2 min and the withdrawal reactions of the damaged paw are counted. Based on the pre-value prior to the application of the substance, the substance's effect over a certain period of time is determined at various points in time (for example 15, 30, 45, or 60 min following application) and the resultant area under the curve (AUC) and/or the inhibition of cold allodynia at the individual measuring points is/are expressed as a percentage effect relative to the vehicle control (AUC) or to the starting value (individual measuring points). The group size is n=10, the significance of an antiallodynic effect (*=p<0.05) is determined with the aid of an analysis of variance with repeated measures and Bonferroni post hoc analysis.
CClm=Bennet model in mice

[4] = biological target: T1, hVR1; experiment: Functional test on human VR1, 45° C. stimulus; type: cell-based, human being; set-up: key to IC50 (human being), 45° C.: agonist / partial agonist / no effect: AG=agonist; pAG=partial agonist; NE=no effect

inhibition at 10 µM [1] | Ki [2] | IC50 (human being) hVR1, pH: agonist / partial agonist / no effect [1] | IC50 (human being), 45° C.: agonist / partial agonist / no effect [4] | Ki (human being) NADA: agonist / partial agonist / no effect [2] | IC50 ([4]; read-out: IC50 (human being) [nM], 45° C.) | SMILES | CClm (Bennett model, percentage effect on cold allodynia) ([3]; 1 po) | CClm (Bennett model, percentage effect on cold allodynia) ([3]; 0.1 iv) | CClm (Bennett model, percentage effect on cold allodynia) ([3]; 1 iv)
21% | 12.6 nM |  |  |  |  | CC(C)(C)c1cc(CNC(=O)Nc2ccc3c(c2)CCC3)n(-c2cccc(Cl)c2)n1 [Example 79, 1-((3-tert-butyl-1-(3-chlorophenyl)-1H-pyrazol-5-yl)methyl)-3-(2,3-dihydro-1H-inden-5-yl)urea] | CClm 70% |  | 
 |  | pAG | pAG |  |  | CC(C(=O)NCc1cc(C(F)(F)F)nn1-c1cccc(Cl)c1)c1ccc2cc(O)ccc2c1 (centres unmarked) [Example 50, N-((1-(3-chlorophenyl)-3-(trifluoromethyl)-1H-pyrazol-5-yl)methyl)-2-(6-hydroxynaphthalen-2-yl)propanamide] |  | CClm 83% | 
36% |  |  | pAG | pAG |  | CC(C(=O)NCc1cc(C(C)(C)C)nn1-c1cccc(Cl)c1)c1ccc2c(c1)OCO2 (centres unmarked) [Example 11, 2-(benzo[d][1,3]dioxol-5-yl)-N-((3-tert-butyl-1-(3-chlorophenyl)-1H-pyrazol-5-yl)methyl)propanamide] |  | CClm 77% | 
 | 0.02 nM |  |  |  | 357 nM | CC(C(=O)NCc1cc(C(F)(F)F)nn1-c1cccc(Cl)c1)c1cccc2cnccc12 (centres unmarked) [Example 64, N-((1-(3-chlorophenyl)-3-(trifluoromethyl)-1H-pyrazol-5-yl)methyl)-2-(isoquinolin-5-yl)propanamide] |  |  | CClm 62%
49% | 4.3 nM |  | pAG | pAG |  | CC(C(=O)NCc1cc(C(C)(C)C)nn1-c1cccc(Cl)c1)c1ccc2c(c1)OCCO2 (centres unmarked) [Example 13, N-((3-tert-butyl-1-(3-chlorophenyl)-1H-pyrazol-5-yl)methyl)-2-(2,3-dihydrobenzo[b][1,4]dioxin-6-yl)propanamide] |  | CClm 85% | 
 | 11.8 nM |  |  | pAG |  | Cc1nc2ccc(C(C)C(=O)NCc3cc(C(F)(F)F)nn3-c3cccc(Cl)c3)cc2s1 (centres unmarked) [Example 45, N-((1-(3-chlorophenyl)-3-(trifluoromethyl)-1H-pyrazol-5-yl)methyl)-2-(2-methylbenzo[d]thiazol-6-yl)propanamide] |  |  | 
